Source: US20120142768A1 (BAXTER INTERNATIONAL INC., priority 2010, published 2012)
Structures can show the parent of a compound that is named as a salt. Where two headings read alike, the source gives them in different places.

How the values were obtained:
[1] = Phase solubility of amiodarone with substituted cyclodextrins; conditions: 5% dextrose, 0.9 mM citrate buffer, pH 3.8, room temperature (FIG. 4)
Excerpt: The actual percent of drug that is complexed will vary according to the complexation equilibrium constant characterizing the complexation of a specific cyclodextrin derivative to a specific drug and to the concentrations of the cyclodextrin derivative and drug available for complexation.
Phase solubility studies can also generate information as to the required amounts of a cyclodextrin needed to solubilize a drug under different conditions such as temperature, cyclodextrin type, or solution composition.

[2] = cited from earlier work
[3] = Ravin et al. 1975, cited from earlier work

SMILES	SBE7-β-CD required for 1.8 mg/mL amiodarone hydrochloride [1]	Critical micellar concentration (CMC) ([2]; Ravin et al. 1975)	Critical micellar concentration (CMC) ([2]; at Krafft point of ~70 °C, Benedini et al. 2010) [mg/mL]	Amiodarone concentration achievable ([3]; 25 °C) [mg/mL]	Amiodarone concentration achievable ([3]; 40 °C) [mg/mL]	Amiodarone concentration achievable ([3]; about 60 °C) [mg/mL]
CCCCc1oc2ccccc2c1C(=O)c1cc(I)c(OCCN(CC)CC)c(I)c1 [amiodarone hydrochloride]	about 6 mg/mL	–	–	–	–	–
CCCCc1oc2ccccc2c1C(=O)c1cc(I)c(OCCN(CC)CC)c(I)c1 [amiodarone]	–	approximately 0.5 mg/mL	1.69	0.35	0.95	> 13
